This passage reports pesticidal activity results from US20040127363A1, “Pesticidal compositions containing silicon compounds” (priority 2000, published 2004).

In this assay the test system is mites and insects. Briefly: Pesticidal activity in a variety of application forms. Format: in vivo. The following applies: diluted aqueous solutions, emulsions with surfactant, or without any solvent. The method, then:
The pesticidal activity was found both in diluted aqueous solutions and in emulsions together with suitable ionic, amphoteric or non-ionic surfactant, or without any solvent.
The pesticidal activity of the silicon esters of the present invention was tested against mites and insects.

Regarding `CCCCO[Si](OCCCC)(OCCCC)OCCCC` [tetrabutyl ortho silicate], the pesticidal activity result was “high pesticidal activity”.
